# According to patent US20260242418A1, “CYCLIC PEPTIDES WITH ANTIBACTERIAL ACTIVITY AGAINST MULTIDRUG RESISTANT (MDR) PATHOGENS” (priority 2022, published 2026):
# Assays:
# P. aeruginosa ATCC 27853 = assay: Time-kill curves; type: cell-based, Pseudomonas aeruginosa
# Experimental: Time-kill curves (TKC) determine the in vitro antimicrobial activity of a compound, monitoring the bacterial growth over a certain period of time.
# This assay was performed for two Acinetobacter baumannii strains (a clinical strain and ATCC 19606 strain) and one Pseudomonas aeruginosa ATCC 27853 strain, monitoring its growth during 24 hours at different PLP-3 (SEQ ID NO: 4) concentrations: MIC, 2×MIC, 4×MIC, 8×MIC. Moreover, in each TKC assay a negative and a positive growth control was stablished.
# In different 13MI tubes, a certain concentration of PLP-3 peptide, Mueller-Hinton Broth (MHB, 1214, Condalab) and a fixed inoculum concentration were added. The final inoculum concentration in each tube was […]. Tubes were incubated at 37° C. at 180 rpm during 24 hours. Aliquots of the liquid culture were taken at different times: 0 h, 10 minutes, 30 minutes, 1 h, 2 h, 4 h, 8 h and 24 h. For each taken aliquot, serial dilutions with Phosphate Saline Buffer 1× (PBS 1×) were made and streaked in Luria-Bertani Agar (LB, 1083, Condalab). LB Agar plates were incubated at 37° C. during 18-22 hours. Grown colonies in LB Agar were counted in order to quantify the inoculum in each time period.
# Three biological replicates were performed for each strain, and the mean and standard deviation was determined each time.
# Pseudomonas aeruginosa = type: cell-based
# Excerpt: Minimum Inhibitory Concentration (MIC) of a peptide of SEQ D NO: 4 (abbreviated PLP-3) and colistin against a collection of clinically relevant and commercially available bacterial strains was obtained via broth microdilution. The protocol for antimicrobial activity determination, detailed below, consisted in a modification of Clinical & Laboratory Standards Institute (CLSI) Guidelines.
# MIC is the value defined as the lowest concentration of an antimicrobial, in these tests either PLP-3 or colistin, which inhibits the macroscopic growth of a bacterial strain after 18-22 h incubation at 37° C. The results from these assays are obtained via visual identification of the bacterial bottom at the end of the wells of the testing plate. Since the wells contain decreasing concentrations of the compounds, the final result is indicated as a concentration, MIC, expressed in μg/mL of the agent (in this case PLP-3 or colistin).
# Bacterial strains were streaked in Columbia Agar plates (Columbia Agar with 5% Sheep Blood 90 mm Stacker plates, BD) and incubated overnight at 37° C. Polypropylene round bottomed 96-well plates were filled with 50 μL/well of Mueller-Hinton Broth (MHB, CM0405, 500 g, ThermoFisher Scientific™ Oxoid™) and 50 μL of either colistin or PLP-3 (at 4× the chosen initial concentration of the test) were added to the first well of each row of the plate followed by serial dilutions up until the 10th column of the plate.
# Finally, strain inoculums were prepared by diluting 1:100 0.5 McFarland solutions in MHB. Plates were then inoculated with 50 μL of the inoculums and covered with film before 18 to 22 h incubation at 37 C.
# Three biological and three technical replicates were performed per strain.
# Broth microdilution testing of 15 strains of each species provided MIC50 and […] values (Table 4). Strains were either from clinical origin, relevant to current clinical situation, or commercially available strains belonging to the American Type Culture Collection (ATCC), namely: A. baumannii 17978 and 19606, K. pneumoniae 13883 and P. aeruginosa 27853.
# This panel represents an example of relevant MDR, colistin resistant and colistin susceptible strains from which to compare results. The minimum inhibitory concentration (MIC) is the lowest concentration of a chemical, usually a drug, which prevents visible growth of a bacterium or bacteria. MIC50 represents the antimicrobial concentration value that inhibits the growth of 50% of the bacterial strains and […] of each species from the tested panel of strains. Being colistin both a peptide and a last-resource antibiotic, it was included in these assays for comparison against a commercially available antibiotic.
# P. aeruginosa ATCC 27853 strain (commercially available from the American Type Collection Culture) was used as control by performing MICs to colistin and PLP-3 in all broth microdilution assays
# [1] = panel of 15 P. aeruginosa strains
structure (smiles),measurement,setting,value
"CC(C)C[C@@H]1NC(=O)[C@H](CCCNC(=N)N)NC(=O)[C@H](CCCNC(=N)N)NC(=O)[C@H](CCCNC(=N)N)NC(=O)[C@H]2CCCN2C(=O)[C@H](CCCNC(=N)N)NC(=O)[C@H](CCCNC(=N)N)NC(=O)[C@H](C(C)C)NC(=O)[C@@H]2CSSC[C@H](NC1=O)C(=O)N[C@@H](Cc1ccccc1)C(=O)N[C@@H](C(C)C)C(=O)N[C@@H](CCCNC(=N)N)C(=O)N1CCC[C@@H]1C(=O)N[C@@H](CCCCN)C(=O)N[C@@H](Cc1ccccc1)C(=O)N[C@@H](C(C)C)C(=O)N[C@@H](C(C)C)C(=O)N2 [PLP-3, cyclo[RRRLCFVRPKFVVCVRRP]]",log(CFU/mL) Mean,"P. aeruginosa ATCC 27853; 2xMIC (16 μg/mL), 0.00 h",5.52 log(CFU/mL)
same,log(CFU/mL) Mean,"P. aeruginosa ATCC 27853; 2xMIC (16 μg/mL), 0.17 h",4.48 log(CFU/mL)
same,log(CFU/mL) Mean,"P. aeruginosa ATCC 27853; 2xMIC (16 μg/mL), 0.50 h",3.75 log(CFU/mL)
same,log(CFU/mL) Mean,"P. aeruginosa ATCC 27853; 2xMIC (16 μg/mL), 1.00 h",2.97 log(CFU/mL)
same,log(CFU/mL) Mean,"P. aeruginosa ATCC 27853; 2xMIC (16 μg/mL), 2.00 h",0.88 log(CFU/mL)
same,log(CFU/mL) Mean,"P. aeruginosa ATCC 27853; 2xMIC (16 μg/mL), 4.00 h",0.00 log(CFU/mL)
same,log(CFU/mL) Mean,"P. aeruginosa ATCC 27853; 2xMIC (16 μg/mL), 8.00 h",0.00 log(CFU/mL)
same,log(CFU/mL) Mean,"P. aeruginosa ATCC 27853; 2xMIC (16 μg/mL), 24.00 h",0.00 log(CFU/mL)
same,log(CFU/mL) Mean,"P. aeruginosa ATCC 27853; 4xMIC (32 μg/mL), 0.00 h",5.52 log(CFU/mL)
same,log(CFU/mL) Mean,"P. aeruginosa ATCC 27853; 4xMIC (32 μg/mL), 0.17 h",4.32 log(CFU/mL)
same,log(CFU/mL) Mean,"P. aeruginosa ATCC 27853; 4xMIC (32 μg/mL), 0.50 h",3.46 log(CFU/mL)
same,log(CFU/mL) Mean,"P. aeruginosa ATCC 27853; 4xMIC (32 μg/mL), 1.00 h",1.23 log(CFU/mL)
same,log(CFU/mL) Mean,"P. aeruginosa ATCC 27853; 4xMIC (32 μg/mL), 2.00 h",0.57 log(CFU/mL)
same,log(CFU/mL) Mean,"P. aeruginosa ATCC 27853; 4xMIC (32 μg/mL), 4.00 h",0.00 log(CFU/mL)
same,log(CFU/mL) Mean,"P. aeruginosa ATCC 27853; 4xMIC (32 μg/mL), 8.00 h",0.00 log(CFU/mL)
same,log(CFU/mL) Mean,"P. aeruginosa ATCC 27853; 4xMIC (32 μg/mL), 24.00 h",0.00 log(CFU/mL)
same,log(CFU/mL) Mean,"P. aeruginosa ATCC 27853; 8xMIC (64 μg/mL), 0.00 h",5.52 log(CFU/mL)
same,log(CFU/mL) Mean,"P. aeruginosa ATCC 27853; 8xMIC (64 μg/mL), 0.17 h",4.14 log(CFU/mL)
same,log(CFU/mL) Mean,"P. aeruginosa ATCC 27853; 8xMIC (64 μg/mL), 0.50 h",1.43 log(CFU/mL)
same,log(CFU/mL) Mean,"P. aeruginosa ATCC 27853; 8xMIC (64 μg/mL), 1.00 h",0.00 log(CFU/mL)
same,log(CFU/mL) Mean,"P. aeruginosa ATCC 27853; 8xMIC (64 μg/mL), 2.00 h",0.00 log(CFU/mL)
same,log(CFU/mL) Mean,"P. aeruginosa ATCC 27853; 8xMIC (64 μg/mL), 4.00 h",0.00 log(CFU/mL)
same,log(CFU/mL) Mean,"P. aeruginosa ATCC 27853; 8xMIC (64 μg/mL), 8.00 h",0.00 log(CFU/mL)
same,log(CFU/mL) Mean,"P. aeruginosa ATCC 27853; 8xMIC (64 μg/mL), 24.00 h",0.00 log(CFU/mL)
same,log(CFU/mL) Mean,"P. aeruginosa ATCC 27853; MIC (8 μg/mL), 0.00 h",5.52 log(CFU/mL)
same,log(CFU/mL) Mean,"P. aeruginosa ATCC 27853; MIC (8 μg/mL), 0.17 h",4.81 log(CFU/mL)
same,log(CFU/mL) Mean,"P. aeruginosa ATCC 27853; MIC (8 μg/mL), 0.50 h",4.34 log(CFU/mL)
same,log(CFU/mL) Mean,"P. aeruginosa ATCC 27853; MIC (8 μg/mL), 1.00 h",3.67 log(CFU/mL)
same,log(CFU/mL) Mean,"P. aeruginosa ATCC 27853; MIC (8 μg/mL), 2.00 h",3.15 log(CFU/mL)
same,log(CFU/mL) Mean,"P. aeruginosa ATCC 27853; MIC (8 μg/mL), 4.00 h",2.63 log(CFU/mL)
same,log(CFU/mL) Mean,"P. aeruginosa ATCC 27853; MIC (8 μg/mL), 8.00 h",2.10 log(CFU/mL)
same,log(CFU/mL) Mean,"P. aeruginosa ATCC 27853; MIC (8 μg/mL), 24.00 h",5.08 log(CFU/mL)
same,bactericidal or bacteriostatic activity,"P. aeruginosa ATCC 27853; time-kill curves over 24 hours, MIC to 8xMIC",bactericidal effect
same,MIC range,Pseudomonas aeruginosa,1 to 8 µg/mL
same,MIC50,Pseudomonas aeruginosa; [1],4 µg/mL
same,MIC90,Pseudomonas aeruginosa; [1],8 µg/mL
